In paper PMC12649535, “Development of New Antimicrobial Peptides by Directional Selection” (Antibiotics, 2025):
Ends that are not written are not given here.

How the values were obtained:
Assay type in all cases: cell-based
Escherichia coli MG1655 = settings: MG1655, 16 h
Excerpt: (§1) Peptides were synthesized on an automated Liberty Blue synthesizer (CEM Corp., Matthews, NC, USA) using solid-phase Fmoc chemistry with microwave-assisted heating. Two types of resin were selected for peptide synthesis to accommodate different molecular weights. Fmoc-Rink amide aminomethyl-polystyrene resin (ABCR GmbH & Co KG, Karlsruhe, Germany) with a loading capacity of 0.78 mmol/g was used for peptides with a molecular weight of up to 3 kDa. For peptides with a molecular weight exceeding 3 kDa, Fmoc-Rink amide PEG MBHA resin (ABCR GmbH & Co KG, Karlsruhe, Germany) with a loading capacity of 0.48 mmol/g was used. The target products were obtained with a purity of over 95% after purification of the peptides by reversed-phase HPLC on an AKTA Pure 25 M1 system (GE Healthcare Life Sciences, Chicago, IL, USA) equipped with a Zorbax SB-C18 column (Agilent Technologies, Santa Clara, CA, USA) and UV detection. All HPLC-spectra and HRMS-spectra are available at the Supplementary Materials (Figures S1–S23). The antimicrobial activity of synthetic peptides was measured using the standard microdilution method in microtiter plates. Peptides were dissolved in water to a concentration of 1 mM. Cultures of Bacillus subtilis 168 HT and Escherichia coli MG1655 were grown in a shaker at 30 °C in MHB medium (BD Difco, Thermo Fisher Scientific Inc., Waltham, MA, USA) for 16 h. The resulting cultures were diluted 1:50 in fresh MHB medium and grown in a shaker at 37 °C until reaching mid-logarithmic phase. The bacterial cultures were then further diluted in MHB to a concentration of 10^6 CFU/mL.
(§2) Peptides were serially twofold diluted in MHB in 96-well plates to final concentrations ranging from 100 to 0.2 µM, with a total volume of 50 µL per well. Subsequently, 50 µL of bacterial suspension (10^6 CFU/mL) was added to each well. Plates were incubated overnight at 37 °C. Each experiment included positive controls (melittin) and negative controls (without peptide). Antimicrobial activity was assessed by measuring the optical density at 600 nm (OD600) using a microplate reader AMR-100.

Bacillus subtilis 168 HT = settings: 16 h
Excerpt: as §1, §2

Expi293F cells = test: Cytotoxicity, MTT assay; settings: Figure 7 and text, 24 h, 200 to 0.0975 µM, NA = no activity within tested concentration range
Procedure: For the synthesized peptides, we determined the minimum inhibitory concentration (MIC) against B. subtilis (MICBs) and E. coli (MICEc) and measured cytotoxicity (IC90) in Expi293F cells (human embryonic kidney cells) using an MTT assay (Figure 7A–C, Tables S1–S4).
Peptide cytotoxicity was assessed using the MTT assay on Expi293F cells (human embryonic kidney cells) (Thermo Fisher Scientific, Waltham, MA, USA). Viable cells with active metabolism reduce water-soluble MTT (Abcam, Cambridge, UK) to insoluble formazan, while dead cells lose this ability and produce no signal. The absorbance measured at 600 nm is proportional to the number of living cells. Expi293F cells were seeded in 96-well plates at a density of 1 × 10^5 cells/mL. After 24 h, peptides were added to the wells at final concentrations ranging from 200 to 0.0975 µM. […] Cells were incubated with peptides in a CO2 incubator at 37 °C and 5% CO2 for 24 h. […] Peptide cytotoxicity was evaluated by measuring optical density at 600 nm and 690 nm using a microplate reader AMR-100. Normalized absorbance was defined as (OD600–OD690). The percentage of cell viability was calculated using the formula: % Cell viability = (ODtreated/ODtotal) × 100, where ODtreated is the normalized absorbance of treated cells and ODtotal is the normalized absorbance of non-treated (control) cells.

EIGWRRRICNYL-NH2 [A2R2P7]
MIC E. coli (Escherichia coli MG1655): 25.0 µM
MIC B. subtilis (Bacillus subtilis 168 HT): 6.2 µM

EKDWPRRILYCF-NH2 [A2R3P10]
MIC B. subtilis (Bacillus subtilis 168 HT): 50.0 µM

EKGRRRWIFYFF-NH2 [A2R3P7]
MIC E. coli (Escherichia coli MG1655): 12.5 µM
MIC B. subtilis (Bacillus subtilis 168 HT): 25.0 µM

EKGWLRRIFYCF-NH2 [A2R3P8]
MIC E. coli (Escherichia coli MG1655): 25.0 µM
MIC B. subtilis (Bacillus subtilis 168 HT): 6.2 µM

EKGWRRWIFFSF-NH2 [A2R3P6]
MIC E. coli (Escherichia coli MG1655): 12.5 µM
MIC B. subtilis (Bacillus subtilis 168 HT): 12.5 µM

EKGWRRWIFNYF-NH2 [A2R1P5]
MIC E. coli (Escherichia coli MG1655): 6.2 µM
MIC B. subtilis (Bacillus subtilis 168 HT): 6.2 µM

EKGWRRWIFYCF-NH2 [A2R2P3]
MIC E. coli (Escherichia coli MG1655): 50.0 µM
MIC B. subtilis (Bacillus subtilis 168 HT): 25.0 µM

EKRWRRLIFNYF-NH2 [Hm-AMP2, reference compound]
MIC E. coli (Escherichia coli MG1655): 3.1 µM
MIC B. subtilis (Bacillus subtilis 168 HT): 12.5 µM

SFVCKTVKKMNNSAKKGFREGIALAIQGGPR-NH2 [CR2P8]
MIC E. coli (Escherichia coli MG1655): 6.2 µM
MIC B. subtilis (Bacillus subtilis 168 HT): 25.0 µM

SLIFKIVKKMDDIGKKRIREGIAIPLQGGPR-NH2 [CR2P7]
MIC E. coli (Escherichia coli MG1655): 50.0 µM

SLMFITVKKLDNSSRIRIRVGIAIAIQGGPR-NH2 [CR2P2]
MIC E. coli (Escherichia coli MG1655): 25.0 µM
MIC B. subtilis (Bacillus subtilis 168 HT): 25.0 µM

SLMFKTVKKMDNSAKKRIREGIAIAIQGGPR-NH2 [CR1P5]
MIC E. coli (Escherichia coli MG1655): 6.2 µM

SLMFKTVKKMDNSVKKRFREGMAIAMQCGPR-NH2 [CR2P9]
MIC E. coli (Escherichia coli MG1655): 3.1 µM
MIC B. subtilis (Bacillus subtilis 168 HT): 25.0 µM

SWLSKTAKKLENSAKKRISEGIAIAIQGGPR-NH2 [cecropin, reference compound]
IC90 (cytotoxicity, concentration that inhibits 90% of cell growth) (Expi293F cells): 200 µM
MIC E. coli (Escherichia coli MG1655): 0.4 µM
